Laboratory results as given in US11512053B2, “Arginine methyltransferase inhibitors and uses thereof” (priority 2013, dated 2022).
Structures can show the parent of a compound that is named as a salt. Where two headings read alike, the source gives them in different places.

Experiments:
[1] = biological target: full-length human PRMT6 (Flag- and His-tagged) (Homo sapiens, UniProt Q96LA8); experiment: PRMT6 Biochemical Assay (3H-SAM Flashplate, peptide substrate); settings: read-out: Biochemical IC50 PRMT6
Procedure, shortened: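 Flag/His-tagged full-length human PRMT6 (1 nM) preincubated with compound 30 min at room temperature in Bicine pH 7.6 buffer, then reaction started with 3H-SAM 200 nM plus unlabeled SAM 250 nM and biotinylated H4 36-50 peptide (K44me1) 75 nM; 2% DMSO. Quenched with 400 uM cold SAM; labeled peptide captured on streptavidin Flashplate, counted; % inhibition vs DMSO and 1 mM SAH controls fit by 3- or 4-parameter curve.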

[2] = test system: mono-methyl arginine in RKO cells; experiment: RKO Methylation Assay, In Cell Western (ICW) for detection of mono-methyl arginine and DNA content; format: cell-based; settings: Homo sapiens, RKO, 72 h
Procedure, shortened: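 RKO cells were treated with compound for 72 hours at 37 °C, methanol-fixed and stained overnight at 4 °C with anti-mono-methyl arginine (1:200), with DRAQ5 for DNA. Odyssey 800/700 nm intensity ratio was normalized to DMSO and 20 μM reference-compound controls. EC30 from triplicate nine-point curves.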

[3] = single experiment or average of multiple experiments
[4] = read-out: In Cell Western EC30, RKO cells, 72 hours compound incubation, mono-methyl arginine signal normalised to DNA content (DRAQ5), percent activation vs 20 μM reference compound
[5] = read-out: In Cell Western EC30, RKO cells, 72 hours incubation, mono-methyl arginine signal normalised to DNA content, single experiment or average of multiple experiments
[6] = RKO cells, 72 hours compound incubation, mono-methyl arginine signal normalised to DNA content (DRAQ5), percent activation vs 20 μM reference compound, read-out: In Cell Western EC30
[7] = RKO cells, 72 hours incubation, mono-methyl arginine signal normalised to DNA content, single experiment or average of multiple experiments, read-out: In Cell Western EC30

full-length human PRMT6 (Flag- and His-tagged), sequence (Q96LA8 with tags, fused parts or gaps): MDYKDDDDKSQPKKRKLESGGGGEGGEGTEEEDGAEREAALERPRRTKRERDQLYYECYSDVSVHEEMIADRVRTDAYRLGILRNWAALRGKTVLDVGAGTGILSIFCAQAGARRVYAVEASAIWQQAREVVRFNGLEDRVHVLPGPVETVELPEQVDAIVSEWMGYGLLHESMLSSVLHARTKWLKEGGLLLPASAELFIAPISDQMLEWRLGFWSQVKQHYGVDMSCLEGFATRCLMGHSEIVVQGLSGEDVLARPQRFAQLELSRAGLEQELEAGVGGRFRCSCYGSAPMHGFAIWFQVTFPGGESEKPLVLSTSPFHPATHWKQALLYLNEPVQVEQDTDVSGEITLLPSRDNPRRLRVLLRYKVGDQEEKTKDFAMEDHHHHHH

Row | IC50 [1] [nM] | IC50 [1, 3] [nM] | SMILES | EC30 [2, 4] [nM] | EC30 [2, 5] [nM] | EC30 [2, 6] [nM] | EC30 [2, 7] [nM]
1 | < 100 | 41 | CNCCN(C)Cc1c[nH]nc1[C@H]1CC[C@@H](N(CCC(C)C)C(=O)CCCOC)CC1 [Compound 237] |  |  | < 3000 | 1440
2 | < 100 | 18 | CNCCN(C)Cc1c[nH]nc1[C@H]1CC[C@H](C(=O)N(C)CCOc2ccccc2)CC1 [Compound 258] |  |  | < 3000 | 303
3 | < 100 | 34.1 | CNCCN(C)Cc1c[nH]nc1[C@H]1CC[C@@H](N(CCC(C)C)C(=O)CCOC)CC1 [Compound 235] |  |  | < 3000 | 813
4 | < 100 | 48.3 | CNCCN(C)Cc1c[nH]nc1[C@H]1CC[C@H](N(CCOC)C(=O)CC(C)C)CC1 [Compound 252] |  |  | < 3000 | 267
5 | < 100 | 17.1 | CCN(C(=O)CCC(C)C)[C@H]1CC[C@@H](c2n[nH]cc2CN(C)CCNC)CC1 [Compound 251] |  |  | < 3000 | 1450
6 | < 100 | 33.1 | CNCCN(C)Cc1c[nH]nc1[C@H]1CC[C@@H](C(=O)N(C)CCOc2ccccc2)CC1 [Compound 259] |  |  | < 3000 | 408
7 | < 100 | 14.7 | CNCCN(C)Cc1c[nH]nc1[C@H]1CC[C@@H](N(CC(C)C)C(=O)CCOc2ccccc2)CC1 [Compound 231] |  |  | < 3000 | 96.7
8 | < 100 | 38.5 | CNCCN(C)Cc1c[nH]nc1C1CCC(C)(C)[C@H](C(=O)OC)C1 (stereo partly shown) [Compound 256] |  |  | < 3000 | 316
9 | < 100 | 19.4 | CNCCN(C)Cc1c[nH]nc1[C@H]1CC[C@H](N(CC(C)C)C(=O)CCOc2ccccc2)CC1 [Compound 232] |  |  | < 3000 | 957
10 | < 100 | 81.2 | CNCCN(C)Cc1c[nH]nc1C1CCC(C)(C)[C@H](C(=O)NCC(C)C)C1 (stereo partly shown) [Compound 262] |  |  | < 3000 | 289
11 | < 100 | 6.72 | CCN(C(=O)CC(C)C)[C@H]1CC[C@@H](c2n[nH]cc2CN(C)CCNC)CC1 [Compound 240] |  |  | < 3000 | 1180
12 | < 100 | 21.3 | CNCCN(C)Cc1c[nH]nc1[C@H]1CC[C@@H](N(CCOc2ccccc2)C(=O)CC(C)C)CC1 [Compound 222] |  |  | < 3000 | 2610
13 | < 100 | 7.75 | CCN(C(=O)CC(C)C)[C@H]1CC[C@H](c2n[nH]cc2CN(C)CCNC)CC1 [Compound 239] |  |  | < 3000 | 2150
14 | < 100 | 31.7 | CNCCN(C)Cc1c[nH]nc1[C@H]1CC[C@@H](N(CCOC)C(=O)CCC(C)C)CC1 [Compound 261] |  |  | < 3000 | 289
15 | < 100 | 53.9 | CNCCN(C)Cc1c[nH]nc1[C@H]1CC[C@H](N(CCC(C)C)C(=O)CCCOC)CC1 [Compound 238] |  |  | < 3000 | 2150
16 | < 100 | 18 | CCN(C(=O)CCOc1ccccc1)[C@H]1CC[C@@H](c2n[nH]cc2CN(C)CCNC)CC1 [Compound 224] |  |  | < 3000 | 84.7
17 | < 100 | 17.6 | CNCCN(C)Cc1c[nH]nc1[C@H]1CC[C@H](N(CCOC)C(=O)CCC(C)C)CC1 [Compound 254] |  |  | < 3000 | 1340
18 | < 100 | 28.3 | CNCCN(C)Cc1c[nH]nc1[C@H]1CC[C@@H](N(CCCOC)C(=O)CCOc2ccccc2)CC1 [Compound 246] |  |  | < 3000 | 79.9
19 | < 100 | 27.6 | CNCCN(C)Cc1c[nH]nc1C1CCC(C)(C)[C@@H](C(=O)OC)C1 (stereo partly shown) [Compound 255] |  |  | < 3000 | 214
20 | 101 to 1000 | 153 | CNCCN(C)Cc1cnn(C)c1[C@H]1CC[C@]2(CC1)CC(C)(C)CO2 [Compound 257] |  |  | < 3000 | 13.2
21 | < 100 | 29.1 | CNCCN(C)Cc1c[nH]nc1[C@H]1CC[C@H](N(CCOc2ccccc2)C(=O)CCCOC)CC1 [Compound 229] |  |  | < 3000 | 689
22 | < 100 | 23.1 | CNCCN(C)Cc1c[nH]nc1[C@H]1CC[C@H](N(CCOC)C(=O)CCOc2ccccc2)CC1 [Compound 230] |  |  | < 3000 | 1320

Second part, the compound before the results:

Row | SMILES | IC50 [1] [nM] | IC50 [1, 3] [nM] | EC30 [2, 4] [nM] | EC30 [2, 5] [nM] | EC30 [2, 6] [nM] | EC30 [2, 7] [nM]
23 | CNCCN(C)Cc1c[nH]nc1[C@H]1CC[C@@H](O)CC1 [Compound 217, 4-[4-([methyl[2-(methylamino)ethyl]amino]methyl)-1H-pyrazol-3-yl]cyclohexan-1-ol trifluoroacetate] | < 100 | 34 | < 3000 | 111 |  | 
24 | CCOC[C@@H]1C[C@H](COCC)C[C@H](c2n[nH]cc2CN(C)CCNC)C1 [Compound 189] | 1010 to 3000 | 1470 |  |  | 3010 to 12000 | 6620
25 | CNCCN(C)Cc1c[nH]nc1[C@H]1CC[C@H](N(CC(C)C)C(=O)CC2CCOCC2)CC1 [Compound 193] | < 100 | 95.1 |  |  | < 3000 | 1440
26 | CNCCN(C)Cc1c[nH]nc1[C@H]1CC[C@H](C(=O)N(C)CCC(C)C)CC1 [Compound 209] | < 100 | 52.1 |  |  | < 3000 | 916
27 | CNCCN(C)Cc1c[nH]nc1[C@H]1CC[C@H](C(=O)N(CCCOC)CCC(C)C)CC1 [Compound 213] | < 100 | 91.3 |  |  | < 3000 | 433
28 | CNCCN(C)Cc1c[nH]nc1[C@H]1CC[C@H](N(CC2CCOCC2)C(=O)CC(C)C)CC1 [Compound 192] | 101 to 1000 | 173 |  |  | 3010 to 12000 | 9250
29 | CNCCN(C)Cc1c[nH]nc1C1CCC2(CCCC2)OC1 (stereo not shown) [Compound 199] | < 100 | 36.5 |  |  | < 3000 | 802
30 | CNCCN(C)Cc1c[nH]nc1[C@H]1CC[C@]2(CCN(Cc3cc(F)cc(F)c3)C2=O)CC1 [Compound 197] | < 100 | 10.7 |  |  | < 3000 | 406
31 | CNCCN(C)Cc1cn(C)nc1[C@H]1CC[C@]2(CC1)CC(C)(C)CO2 [Compound 206, Methyl([1-methyl-3-[(5R,8S)-3,3-dimethyl-1-oxaspiro[4.5]decan-8-yl]-1H-pyrazol-4-yl]methyl)[2-(methylamino)ethyl]amine hydrochloride] | 101 to 1000 | 207 |  |  | < 3000 | 76.5
32 | CNCCN(C)Cc1c[nH]nc1[C@H]1CC[C@H](O)CC1 [Compound 227, 4-[4-([methyl[2-(methylamino)ethyl]amino]methyl)-1H-pyrazol-3-yl]cyclohexan-1-ol trifluoroacetate] | < 100 | 17.8 | < 3000 | 1530 |  | 
33 | CNCCN(C)Cc1c[nH]nc1[C@H]1CC[C@@H](C(=O)N(C)CCC(C)C)CC1 [Compound 210] | < 100 | 31.7 |  |  | < 3000 | 280
34 | CNCCN(C)Cc1c[nH]nc1C1CCC(F)(F)CC1 [Compound 216] | < 100 | 20.5 |  |  | < 3000 | 111
35 | CCC(=O)N(CCOc1ccccc1)[C@H]1CC[C@@H](c2n[nH]cc2CN(C)CCNC)CC1 [Compound 220] | < 100 | 18.4 |  |  | < 3000 | 219
36 | CNCCN(C)Cc1c[nH]nc1[C@H]1CC[C@@H](C(=O)N(CCCOC)CCC(C)C)CC1 [Compound 214] | < 100 | 50.5 |  |  | < 3000 | 95.8
37 | CCN(C(=O)CC1CCOCC1)[C@H]1CC[C@@H](c2n[nH]cc2CN(C)CCNC)CC1 [Compound 196] | 101 to 1000 | 111 |  |  | 3010 to 12000 | 4890
